# Tests used:
# [1] = biological target: full length human TREX1 (Homo sapiens (Human), UniProt Q9NSU2); experiment: TREX1 Biochemical Assay (fluorescence assay measuring degradation of dsDNA substrate); conditions: 150 pM TREX1, 60 nM dsDNA substrate, 25 minutes at room temperature
# Description: Degradation of the dsDNA liberates free fluorophore to produce a fluorescent signal. Specifically, 7.5 μL of N-terminally His-Tev tagged full length human TREX1 (expressed in E. coli and purified in house) in reaction buffer (50 mM Tris (pH 7.4), 150 mM NaCl, 2 mM DTT, 0.1 mg/mL BSA, 0.01% (v/v) Tween-20 and 100 mM MgCl2 were added to a 384-well Black ProxiPlate Plus (Perkin Elmer) which already contained compound (150 nL) at varying concentrations as a 10 point dose-response in DMSO. To this was added 7.5 μL of dsDNA substrate (Strand A: 5′ TEX615/GCT AGG CAG 3′; Strand B: 5′ CTG CCT AGC/IAbRQSp (Integrated DNA Technologies)) in reaction buffer. Final concentrations were 150 pM TREX1, 60 nM dsDNA substrate in reaction buffer with 1.0% DMSO (v/v). After 25 minutes at room temperature, reactions were quenched by the addition of 5 μL of stop buffer (same as reaction buffer plus 200 mM EDTA). Final concentrations in the quenched reaction were 112.5 pM TREX1, 45 nM DNA and 50 mM EDTA in a volume of 20 μL. After a 5-minute incubation at room temperature, plates were read in a laser sourced Envision (Perkin-Elmer), measuring fluorescence at 615 nm following excitation w/570 nm light. IC50 values were calculated by comparing the measured fluorescence at 615 nm ratio relative to control wells pre-quenched w/stop buffer (100% inhibition) and no inhibitor (0% inhibition) controls as using non-linear least square four parameter fits and either Genedata or GraphPad Prism (GraphPad Software, Inc.).
# [2] = biological target: human TREX2 (residues M44-A279) (Homo sapiens (Human), UniProt Q9BQ50); experiment: TREX2 Biochemical Assay (fluorescence assay measuring degradation of dsDNA substrate); conditions: 2.5 nM TREX2, 60 nM dsDNA substrate, 25 minutes at room temperature
# Description: Degradation of the dsDNA liberates free fluorophore to produce a fluorescent signal. Specifically, 7.5 μL of N-terminally His-Tev tagged human TREX2 (residues M44-A279, expressed in E. coli and purified in house) in reaction buffer (50 mM Tris (pH 7.4), 150 mM NaCl, 2 mM DTT, 0.1 mg/mL BSA, 0.01% (v/v) Tween-20 and 100 mM MgCl2) was added to a 384-well Black ProxiPlate Plus (Perkin Elmer) which already contained compound (150 nL) at varying concentrations as a 10 point dose-response in DMSO. To this was added 7.5 μL of dsDNA substrate (Strand A: 5′ TEX615/GCT AGG CAG 3′; Strand B: 5′ CTG CCT AGC/IAbRQSp (IDT)) in reaction buffer. Final concentrations were 2.5 nM TREX2, 60 nM dsDNA substrate in reaction buffer with 1.0% DMSO (v/v). After 25 minutes at room temperature, reactions were quenched by the addition of 5 μL of stop buffer (same as reaction buffer plus 200 mM EDTA). Final concentrations in the quenched reaction mixture were […] TREX2, 45 nM DNA and 50 mM EDTA in a volume of 20 μL. After a 5-minute incubation at room temperature, plates were read in a laser sourced Envision (Perkin-Elmer), measuring fluorescence at 615 nm following excitation w/570 nm light. IC50 values were calculated by comparing the measured fluorescence at 615 nm ratio relative to control wells pre-quenched w/stop buffer (100% inhibition) and no inhibitor (0% inhibition) controls as using non-linear least square four parameter fits and either Genedata or GraphPad Prism (GraphPad Software, Inc.).
# Sequence of full length human TREX1 (Q9NSU2 whole entry): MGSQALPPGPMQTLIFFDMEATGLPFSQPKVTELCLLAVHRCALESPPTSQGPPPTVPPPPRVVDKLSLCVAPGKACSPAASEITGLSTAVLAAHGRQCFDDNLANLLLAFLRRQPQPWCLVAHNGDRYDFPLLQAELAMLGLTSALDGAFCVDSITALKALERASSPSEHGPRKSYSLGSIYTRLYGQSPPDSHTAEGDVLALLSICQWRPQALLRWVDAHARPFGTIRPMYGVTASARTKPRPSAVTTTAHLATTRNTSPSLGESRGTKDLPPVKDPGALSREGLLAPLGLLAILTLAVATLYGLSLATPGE
# Sequence of human TREX2 (residues M44-A279) (Q9BQ50 whole entry, the tested form may be a part): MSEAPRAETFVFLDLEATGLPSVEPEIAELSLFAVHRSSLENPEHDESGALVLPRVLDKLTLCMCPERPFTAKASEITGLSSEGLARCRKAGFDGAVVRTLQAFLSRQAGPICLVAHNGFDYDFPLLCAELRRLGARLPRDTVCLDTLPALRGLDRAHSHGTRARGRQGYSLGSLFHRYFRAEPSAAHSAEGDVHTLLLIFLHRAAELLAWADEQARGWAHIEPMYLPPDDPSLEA
IC50 [1],IC50 [2],Compound
100 to 1000 nM,10000 to 100000 nM,"Cc1cc(C(=O)NCCO)cc(-c2nc(C(=O)Nc3cnoc3)c(O)c(=O)n2C)c1 [Example 38, 5-hydroxy-2-(3-((2-hydroxyethyl)carbamoyl)-5-methylphenyl)-N-(isoxazol-4-yl)-1-methyl-6-oxo-1,6-dihydropyrimidine-4-carboxamide]"
1000 to 10000 nM,10000 to 100000 nM,"Cn1c(C2CCCN(Cc3ccccc3)C2)nc(C(=O)Nc2cnoc2)c(O)c1=O (stereo not shown) [Example 39, 2-(1-benzylpiperidin-3-yl)-5-hydroxy-N-(isoxazol-4-yl)-1-methyl-6-oxo-1,6-dihydropyrimidine-4-carboxamide]"
100 to 1000 nM,1000 to 10000 nM,"Cn1c(C2CCCN(C(=O)c3ccccn3)C2)nc(C(=O)Nc2cnoc2)c(O)c1=O (stereo not shown) [Example 40, 5-hydroxy-N-(isoxazol-4-yl)-1-methyl-6-oxo-2-(1-picolinoylpiperidin-3-yl)-1,6-dihydropyrimidine-4-carboxamide]"
100 to 1000 nM,10000 to 100000 nM,"COc1ccccc1C(=O)N1CCCC(c2nc(C(=O)Nc3cnoc3)c(O)c(=O)n2C)C1 (stereo not shown) [Example 41, 5-hydroxy-N-(isoxazol-4-yl)-2-(1-(2-methoxybenzoyl)piperidin-3-yl)-1-methyl-6-oxo-1,6-dihydropyrimidine-4-carboxamide]"
100 to 1000 nM,10000 to 100000 nM,"Cn1c(-c2cnn(Cc3ccccc3)c2)nc(C(=O)Nc2cnoc2)c(O)c1=O [Example 42, 2-(1-benzyl-1H-pyrazol-4-yl)-5-hydroxy-N-(isoxazol-4-yl)-1-methyl-6-oxo-1,6-dihydropyrimidine-4-carboxamide]"
< 100 nM,1000 to 10000 nM,"Cn1c(C2CCCN(C(=O)CCc3ccccc3)C2)nc(C(=O)Nc2cnoc2)c(O)c1=O (stereo not shown) [Example 43, 5-hydroxy-N-(isoxazol-4-yl)-1-methyl-6-oxo-2-(1-(3-phenylpropanoyl)piperidin-3-yl)-1,6-dihydropyrimidine-4-carboxamide]"
100 to 1000 nM,10000 to 100000 nM,"Cc1cccc(-c2nc(C(=O)Nc3cnoc3)c(O)c(=O)n2C)c1 [Example 44, 5-hydroxy-N-(isoxazol-4-yl)-1-methyl-6-oxo-2-(m-tolyl)-1,6-dihydropyrimidine-4-carboxamide]"
< 100 nM,1000 to 10000 nM,"Cn1c(C2CCCN(C(=O)c3cccc(Cl)c3)C2)nc(C(=O)Nc2cnoc2)c(O)c1=O (stereo not shown) [Example 45, 2-(1-(3-chlorobenzoyl)piperidin-3-yl)-5-hydroxy-N-(isoxazol-4-yl)-1-methyl-6-oxo-1,6-dihydropyrimidine-4-carboxamide]"
100 to 1000 nM,10000 to 100000 nM,"Cn1c(C2CCCN(C(=O)c3ccccc3Cl)C2)nc(C(=O)Nc2cnoc2)c(O)c1=O (stereo not shown) [Example 46, 2-(1-(2-chlorobenzoyl)piperidin-3-yl)-5-hydroxy-N-(isoxazol-4-yl)-1-methyl-6-oxo-1,6-dihydropyrimidine-4-carboxamide]"
100 to 1000 nM,1000 to 10000 nM,"COc1ccc(C(=O)N2CCCC(c3nc(C(=O)Nc4cnoc4)c(O)c(=O)n3C)C2)cc1 (stereo not shown) [Example 47, 5-hydroxy-N-(isoxazol-4-yl)-2-(1-(4-methoxybenzoyl)piperidin-3-yl)-1-methyl-6-oxo-1,6-dihydropyrimidine-4-carboxamide]"
100 to 1000 nM,1000 to 10000 nM,"COc1cccc(C(=O)N2CCCC(c3nc(C(=O)Nc4cnoc4)c(O)c(=O)n3C)C2)c1 (stereo not shown) [Example 48, 5-hydroxy-N-(isoxazol-4-yl)-2-(1-(3-methoxybenzoyl)piperidin-3-yl)-1-methyl-6-oxo-1,6-dihydropyrimidine-4-carboxamide]"
100 to 1000 nM,10000 to 100000 nM,"CN1CCN(c2nc(C(=O)Nc3cnoc3)c(O)c(=O)n2C)CC1 [Example 49, 5-hydroxy-N-(isoxazol-4-yl)-1-methyl-2-(4-methylpiperazin-1-yl)-6-oxo-1,6-dihydropyrimidine-4-carboxamide]"
100 to 1000 nM,10000 to 100000 nM,"Cn1c(C2(Cc3ccccc3)CCCN(C(=O)OC(C)(C)C)C2)nc(C(=O)Nc2cnoc2)c(O)c1=O (stereo not shown) [Example 50, tert-butyl 3-benzyl-3-(5-hydroxy-4-(isoxazol-4-ylcarbamoyl)-1-methyl-6-oxo-1,6-dihydropyrimidin-2-yl)piperidine-1-carboxylate]"
100 to 1000 nM,1000 to 10000 nM,"Cc1cc(C(=O)O)cc(-c2nc(C(=O)Nc3cnoc3)c(O)c(=O)n2C)c1 [Example 51, 3-(5-hydroxy-4-(isoxazol-4-ylcarbamoyl)-1-methyl-6-oxo-1,6-dihydropyrimidin-2-yl)-5-methylbenzoic acid]"
100 to 1000 nM,1000 to 10000 nM,"Cn1c(C2(COCc3ccccc3)CCCN(C(=O)OC(C)(C)C)C2)nc(C(=O)Nc2cnoc2)c(O)c1=O (stereo not shown) [Example 52, tert-butyl 3-((benzyloxy)methyl)-3-(5-hydroxy-4-(isoxazol-4-ylcarbamoyl)-1-methyl-6-oxo-1,6-dihydropyrimidin-2-yl)piperidine-1-carboxylate]"
100 to 1000 nM,1000 to 10000 nM,"COC(=O)c1cc(C)cc(-c2nc(C(=O)Nc3cnoc3)c(O)c(=O)n2C)c1 [Example 53, methyl 3-(5-hydroxy-4-(isoxazol-4-ylcarbamoyl)-1-methyl-6-oxo-1,6-dihydropyrimidin-2-yl)-5-methylbenzoate]"
100 to 1000 nM,10000 to 100000 nM,"Cc1cc(C(=O)NC2CCN(C)CC2)cc(-c2nc(C(=O)Nc3cnoc3)c(O)c(=O)n2C)c1 [Example 54, 5-hydroxy-N-(isoxazol-4-yl)-1-methyl-2-(3-methyl-5-((1-methylpiperidin-4-yl)carbamoyl)phenyl)-6-oxo-1,6-dihydropyrimidine-4-carboxamide]"
< 100 nM,1000 to 10000 nM,"CNC(=O)c1cc(C)cc(-c2nc(C(=O)Nc3cnoc3)c(O)c(=O)n2C)c1 [Example 55, 5-hydroxy-N-(isoxazol-4-yl)-1-methyl-2-(3-methyl-5-(methylcarbamoyl)phenyl)-6-oxo-1,6-dihydropyrimidine-4-carboxamide]"
100 to 1000 nM,10000 to 100000 nM,"Cn1c(C2CCCN(C(=O)C3CCC(=O)NC3)C2)nc(C(=O)Nc2cnoc2)c(O)c1=O (stereo not shown) [Example 56, 5-hydroxy-N-(isoxazol-4-yl)-1-methyl-6-oxo-2-(1-(6-oxopiperidine-3-carbonyl)piperidin-3-yl)-1,6-dihydropyrimidine-4-carboxamide]"
100 to 1000 nM,10000 to 100000 nM,"Cn1c(C2CCCN(S(=O)(=O)c3ccccc3)C2)nc(C(=O)Nc2cnoc2)c(O)c1=O (stereo not shown) [Example 57, 5-hydroxy-N-(isoxazol-4-yl)-1-methyl-6-oxo-2-(1-(phenylsulfonyl)piperidin-3-yl)-1,6-dihydropyrimidine-4-carboxamide]"
100 to 1000 nM,1000 to 10000 nM,"Cn1c(C2CCCN(C(=O)c3cncnc3)C2)nc(C(=O)Nc2cnoc2)c(O)c1=O (stereo not shown) [Example 58, 5-hydroxy-N-(isoxazol-4-yl)-1-methyl-6-oxo-2-(1-(pyrimidine-5-carbonyl)piperidin-3-yl)-1,6-dihydropyrimidine-4-carboxamide]"
100 to 1000 nM,1000 to 10000 nM,"Cn1c(C2CCCN(C(=O)c3ccc(Cl)cc3)C2)nc(C(=O)Nc2cnoc2)c(O)c1=O (stereo not shown) [Example 59, 2-(1-(4-chlorobenzoyl)piperidin-3-yl)-5-hydroxy-N-(isoxazol-4-yl)-1-methyl-6-oxo-1,6-dihydropyrimidine-4-carboxamide]"
1000 to 10000 nM,10000 to 100000 nM,"CN(C)CCCC(=O)N1CCCC(c2nc(C(=O)Nc3cnoc3)c(O)c(=O)n2C)C1 (stereo not shown) [Example 60, 2-(1-(4-(dimethylamino)butanoyl)piperidin-3-yl)-5-hydroxy-N-(isoxazol-4-yl)-1-methyl-6-oxo-1,6-dihydropyrimidine-4-carboxamide]"
